The text below walks through data of PubChem BioAssay (NCI).

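1) Cells in 96-well plates. 2) Compound, 48 h, 5 concentrations. 3) Linear interpolation between surrounding doses. 4) Unreached endpoint = highest concentration. GI50: concentration for 50% inhibition of growth. TGI: total growth inhibition.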 Where only a bound is given, the exact number is not on record here.

What all share (test): DTP human tumour cell line panel, 48 h
The test system of assay [1] is DLD-1 colon.
In assay [2] the test system is LXFL 529 NSCLC.
Assay [3] relates to M19-MEL melanoma.
For assay [4], the system named is DMS 114 small cell lung.
Assay [5] concerns DU-145 prostate.
Assay [6] has as its system HS 578T breast.
Assay [7] deals with MDA-MB-231 breast.
In assay [8] the test system is MDA-MB-435.
Assay [9] deals with T-47D breast.

For orientation: TGI means the concentration at which net growth stops. A higher TGI goes with less potent growth arrest. For `C/C(=N\N(c1ccccc1)c1ccccc1)c1c(O)cc(C)oc1=O`, the TGI in [1], in [2] and in [3] was more than 100 µM throughout.
Regarding `CN(C)/N=C(/c1nc2ccc(Cl)cc2[nH]c1=O)C(O)c1ccc(C(O)/C(=N\N(C)C)c2nc3ccc(Cl)cc3[nH]c2=O)cc1` (stereo unspecified), the TGI in [1], in assay [4] and in [3] was more than 100 µM in each case.
For the compound `CCOC(=O)c1cc(/C=C/C(C)=C/C(=O)OC)oc1C`, the TGI in assay [1], in assay [4], in assay [2] and in [3] was more than 100 µM each time.
In the case of `Nc1ccc(C(=O)CC(N)C(=O)O)cc1O` (stereo unspecified), the TGI in assay [5], in assay [6], in [7], in assay [8] and in [9] was more than 100 µM throughout.
As a reminder, the GI50 is the concentration that inhibits growth by half. In the case of `COc1cc(-c2cn(-c3ccc(Cl)c(Cl)c3)c(=O)n2C(C)=O)cc(OC)c1OC`, the GI50 in assay [5] is 5.32 µM; in [6] it was 6.16 µM; in assay [7], 10.4 µM; in [8] it was 14.2 µM; in assay [9] it was 18.4 µM. Moreover, the TGI in assay [5] turned out to be 18.2 µM; in assay [6] it was 29.3 µM; in assay [7], 26.2 µM; in assay [8], 35 µM; in assay [9], 48.1 µM.
Take `COc1ccc2c(c1)/C(=C\c1c(Cl)[nH]c3ccc(OC)cc13)C(=O)N2`: the GI50 in assay [5] was more than 100 µM; in assay [6] it was 29.9 µM; in assay [7] it was 27.8 µM; in [8], 33.7 µM; in assay [9], 13 µM. Further, the TGI was more than 100 µM in [5]; 81.2 µM in assay [6]; 75.2 µM in assay [7]; more than 100 µM in [8]; 32 µM in assay [9].
As for `COc1ccc(Cn2cc3c(c2)-c2oncc2CC3)cc1`, the GI50 is 4.46 µM in assay [5]; 3 µM in assay [6]; 9.47 µM in [7]; 0.635 µM in assay [8]; 5.09 µM in assay [9]. The TGI is 34.5 µM in assay [5]; 13.8 µM in [6]; more than 100 µM in assay [7]; 5.75 µM in assay [8]; more than 100 µM in assay [9].
For the compound `O=C(N/N=C(/CCN1CCCC1)CC(c1ccccc1)c1c(O)c2ccccc2oc1=O)c1ccncc1` (stereo unspecified), the TGI in [1], in [2] and in assay [3] was more than 100 µM throughout.
Regarding `O=C1NC(=S)S/C1=C(/C=C(\CC(=O)c1ccccc1)c1ccc(Cl)cc1)c1ccccc1`, the GI50 in [5] is 43.1 µM; in assay [6], 42.3 µM; in [7], 25 µM; in assay [8], 37.2 µM; in [9], 35.6 µM. Further, the TGI in [5] was more than 100 µM; in assay [6], 85.4 µM; in [7], 72.6 µM; in assay [8], more than 100 µM; in assay [9] it was more than 100 µM.
For the compound `CCOC(=O)/C=C/C1=C(c2cccs2)c2ccccc2CC1`, the GI50 in assay [5] is 22.6 µM; in assay [6], 28.5 µM; in assay [7], 20.5 µM; in [8] it was 20.6 µM; in assay [9], 36.5 µM. The TGI in assay [5] was 58.6 µM; in assay [6], 99.1 µM; in [7] it was 64.7 µM; in [8] it was 51.3 µM; in [9], more than 100 µM.
Take `COc1ccc(-c2oc3c(OC)c(OC)c(OC)c(OC)c3c(=O)c2OC)cc1OC`: the TGI is more than 100 µM in [5]; 56.3 µM in [6]; more than 100 µM in assay [7]; 98.7 µM in [8]; more than 100 µM in assay [9].
Consider `COC1OC(CO)C(O)C1N` (stereo unspecified), for which the TGI in assay [1], in assay [4] and in [2] was more than 100 µM in each case.
Regarding `CCn1c(-c2nonc2N)nc2c(C#CC(C)(C)O)nc(OCCNC)cc21`, the GI50 was 8.53 µM in [5]; 6.03 µM in [6]; 8.9 µM in assay [7]; 8.58 µM in assay [8]; 3.83 µM in assay [9]. The TGI in [5], in assay [6], in assay [7], in assay [8] and in assay [9] was more than 25 µM in each case.
Consider `CC[PH+](CC)CC.O=COC1OC([S-])C(OC=O)C(OC=O)C1OC=O.[Au+]` (stereo unspecified), for which the GI50 in assay [5] was 1.58 µM; in [6], 0.775 µM; in [7], 1.46 µM; in assay [8], 1.43 µM; in assay [9], 1.96 µM. Moreover, the TGI in [5] amounted to 3.33 µM; in [6], 4.76 µM; in assay [7], 2.82 µM; in assay [8], 2.97 µM; in assay [9], 6.47 µM.
As for `Cc1ccc(-c2csc(NC(=O)CN3CCN(c4cc5c(cc4F)c(=O)c(C(=O)O)cn5C4CC4)CC3)n2)cc1`, the GI50 in [5] was 0.513 µM; in assay [6], 0.749 µM; in assay [7], 2.08 µM; in assay [8] it was 1.77 µM; in [9], 1.16 µM. Further, the TGI in assay [5] was more than 100 µM; in [6] it was 31.7 µM; in assay [7], 13.7 µM; in [8], more than 100 µM; in [9], 6.02 µM.
As for `Cc1cc2c(cc1Cl)SC1=NN(C)C(N(C)C)N1S2(=O)=O` (stereo unspecified), the GI50 in assay [5], in assay [6], in assay [7], in assay [8] and in [9] was more than 100 µM each time. Moreover, the TGI in [5], in assay [6], in assay [7], in assay [8] and in assay [9] was more than 100 µM in each case.
Consider `Cc1ccc2nc(-c3ccc(N(C)C)c(Br)c3)cn2c1`, for which the GI50 was more than 100 µM in assay [5]; 25.3 µM in [6]; more than 100 µM in assay [7]; 22.6 µM in assay [8]; more than 100 µM in assay [9]. Also, the TGI in assay [5], in [6], in assay [7], in assay [8] and in assay [9] was more than 100 µM each time.
In the case of `Cc1[nH]nc(C(=O)n2nc(N)c3ccccc32)c1[N+](=O)[O-]`, the GI50 in assay [5], in assay [6], in assay [7], in [8] and in assay [9] was more than 100 µM each time. Moreover, the TGI in assay [5], in assay [6], in [7], in assay [8] and in [9] was more than 100 µM throughout.
`Fc1cc2[nH]ncc2c2c3c(c(-c4cn[nH]c4C(F)(F)F)nc12)C1CCC3C1` (stereo unspecified): the GI50 in assay [5] was 1.12 µM; in [6], 0.808 µM; in assay [7] it was 0.724 µM; in assay [8] it was 1.52 µM; in assay [9] it was 0.85 µM. The TGI in [5] stood at 7.52 µM; in [6], 2.67 µM; in assay [7], 3.45 µM; in [8], 7.14 µM; in [9], 3.79 µM.
As to `O=C1C(c2ccccc2)=[N+]([O-])c2ccccc21`, the TGI turned out to be 32.4 µM in assay [5]; 82.9 µM in assay [6]; 25.4 µM in assay [7]; 11.2 µM in assay [8]; 7.25 µM in [9].
Consider `COc1ccc2cc(-c3c(-c4ccncc4)nc(-c4ccc(S(C)(=O)=O)cc4C)n3C)ccc2c1`, for which the GI50 in assay [5] was 10.2 µM; in [6], 5.24 µM; in assay [7], 9.75 µM; in [8], 9.18 µM; in assay [9], 5.14 µM. For the same compound, the TGI in [5] is more than 25 µM; in assay [6] it was more than 25 µM; in assay [7] it was more than 25 µM; in [8], more than 25 µM; in assay [9], more than 18.6 µM.
As to `Cc1cc2c(cc1C)N(C(=O)CCl)CCN2C(=O)CCl`, the GI50 in assay [5] is 1.54 µM; in assay [6], 1.75 µM; in [7] it was 1.7 µM; in assay [8] it was 1.02 µM; in assay [9] it was 1.4 µM. Also, the concentration for total growth inhibition (TGI) in assay [5] turned out to be 2.9 µM; in assay [6], 4.96 µM; in [7], 3.92 µM; in assay [8], 2.69 µM; in assay [9], 3.94 µM.
On to `CCC[n+]1cc2cc(OC)c(OC)cc2c2c1-c1cc3c(cc1C2)OCO3`, for which the GI50 in assay [5] was 7.82 µM; in [6] it was 1.63 µM; in [7], 4.71 µM; in [8] it was 3.29 µM; in [9] it was 0.583 µM. Also, the TGI in [5] came to 38.6 µM; in assay [6], 13.6 µM; in assay [7], 15.4 µM; in assay [8], 12.4 µM; in [9], 3.92 µM.
Regarding `COc1ccc(C2=NN(C=O)C(c3cccc(Nc4ccnc5cc(Cl)ccc45)c3)C2)cc1` (stereo unspecified), the GI50 in [5] is 3.62 µM; in assay [6], 3.92 µM; in assay [7], 4 µM; in assay [8], 0.37 µM; in assay [9], 1.39 µM. In addition, the TGI is 89.3 µM in [5]; 39.4 µM in assay [6]; 97 µM in [7]; 13.1 µM in assay [8]; 21 µM in assay [9].
